Source: paper PMC2933614, “Quantitative in vitro and in vivo pharmacological profile of CE-178253, a potent and selective cannabinoid type 1 (CB1) Receptor Antagonist” (BMC Pharmacology, 2010)
Entries after “also recorded” stand apart in the source; their conditions may differ. Like-named read-outs stand apart in the source and are kept apart here.

Assays:
[1] = Spontaneous nocturnal food intake; assay type: in vivo, rat; details: for Decrease in FI compared to veh.: 2 hr time point
Description: All animal studies were approved by the Institutional Animal Care and Use Committee. Male Sprague Dawley rats on normal chow (8 weeks old, 250-300 g on arrival, 300-350 g on test day) were obtained from Charles River. After arrival, animals were individually housed and placed on powdered rat chow. Rats were maintained on a 12-hr light/dark cycle and received food and water ad libitum. In all studies CE-178253 and veh (0.5% methyl cellulose) administration to rats and mice was by oral gavage.
For the spontaneous, nocturnal FI assay, rats were administered veh. (0.5% methyl cellulose) or CE-178253 30 min prior to the start of the dark phase. Food consumption was monitored with electronic scales, and consumption was recorded every 10 min for 12 hr using an automated FI system (Columbus Instruments, Columbus, OH).
The first FI model used for determining anorectic efficacy of CE-178253 was spontaneous nocturnal feeding in rats. In rodents, most feeding activity takes place during the dark phase (nocturnal feeding cycle). In this model, male S-D rats were orally administered compound 30 min prior to the onset of the nocturnal phase. […] In addition, the effect of treatment on hourly FI was also assessed. […] No other time points in the interval analysis reach statistical significance. […] Cumulative food intake at the 2.5 hr time point was 3.2 ± 0.3, 2.4 ± 0.2, 0.5 ± 0.1 and 0.2 ± 0.1 in the veh, 0.3 mg/kg, 1 mg/kg, 3 mg/kg treated rats, respectively.

GPR55 = GPR55 (Homo sapiens, UniProt Q9Y2T6); assay: GPR55 functional assay; assay type: biochemical; details: 10 μM
GPR55, sequence (Q9Y2T6 whole entry, species assumed): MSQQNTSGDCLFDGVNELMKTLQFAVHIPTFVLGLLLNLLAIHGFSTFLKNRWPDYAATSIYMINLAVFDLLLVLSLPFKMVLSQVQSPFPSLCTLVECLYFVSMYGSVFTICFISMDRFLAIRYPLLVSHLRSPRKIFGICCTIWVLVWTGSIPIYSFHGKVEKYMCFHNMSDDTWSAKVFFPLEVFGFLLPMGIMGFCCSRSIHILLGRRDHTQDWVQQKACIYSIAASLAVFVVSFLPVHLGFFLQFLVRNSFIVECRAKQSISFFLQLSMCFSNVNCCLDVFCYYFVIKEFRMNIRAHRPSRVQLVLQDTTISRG
Description: (§1) Rimonabant also binds weakly to the Vanilloid 1 (TRPV1) receptor channel. […] CE-178253 was not evaluated against TRPM8. Rimonabant has been reported to bind to TRPM8 [21].

human CB1 in CHO cells = target: T1, human CB1 in CHO cells (Homo sapiens, UniProt P21554); assay: GTPγ[35S] inverse agonist assay; assay type: biochemical
T1 construct: expressed in transfected cells
T1 sequence (P21554 whole entry): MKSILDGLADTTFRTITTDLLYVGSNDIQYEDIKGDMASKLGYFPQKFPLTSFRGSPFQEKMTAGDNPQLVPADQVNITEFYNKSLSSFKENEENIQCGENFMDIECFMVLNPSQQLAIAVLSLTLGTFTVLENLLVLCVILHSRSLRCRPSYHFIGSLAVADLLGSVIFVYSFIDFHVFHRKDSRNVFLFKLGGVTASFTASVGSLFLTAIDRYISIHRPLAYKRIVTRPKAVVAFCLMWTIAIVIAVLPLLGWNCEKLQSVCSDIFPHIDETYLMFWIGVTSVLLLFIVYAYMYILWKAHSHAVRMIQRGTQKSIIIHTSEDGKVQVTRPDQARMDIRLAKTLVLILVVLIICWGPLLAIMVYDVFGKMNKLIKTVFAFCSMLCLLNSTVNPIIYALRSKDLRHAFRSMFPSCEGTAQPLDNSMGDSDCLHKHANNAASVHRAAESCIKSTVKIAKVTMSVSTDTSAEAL
Experimental: GTPγ[^35S] binding assays were performed as described. GTPγ[^35S] binding assays were performed in a 96-well FlashPlate™ format in duplicate using 100 pM GTPγ[^35S] and 10 μg membrane per well in assay buffer composed of 50 mM Tris HCl (pH 7.4); 3 mM MgCl2 (pH 7.4); 10 mM MgCl2, 20 mM EGTA, 100 mM NaCl, 30 μM GDP, 0.1% BSA and the following protease inhibitors: 100 μg/ml bacitracin, 100 μg/ml benzamidine, 5 μg/ml aprotinin, and 5 μg/ml leupeptin. […] Assays were performed at 30°C for 1 hr. The FlashPlates™ were then centrifuged at 2000×g for 10 min. Stimulation of GTPγ[^35S] binding was then quantified using a Wallac Microbeta® [16].

human CB1 receptor = target: T2, human CB1 receptor (Homo sapiens, UniProt P21554); assay: Competition radioligand binding, human CB1
T2 construct: expressed in transfected cells
T2 sequence (P21554 whole entry): as above
Experimental: (§2) HEK293 (CB1) or CHO (CB1 and CB2) cells (ATCC) were stably transfected with the human CB1 or CB2 receptors. Rat brain, and recombinant CB1 and CB2 and membranes were prepared as described. A Pierce™ BCA kit was used to determine protein concentrations.
(§3) 10 μg of membranes per well from human CB1 and CB 2 receptor transfected cells and rat brain was used in the assay. The plates were covered and placed in an incubator at 30°C for 60 min. At the end of the incubation period 125 μl of stop buffer (10% BSA plus TME) was added to the reaction plate. The plates were then harvested onto GF/C filter plates (Perkin Elmer Life Sciences) presoaked in BSA (5 mg/ml) plus TME. Each filter was washed twice with TME and dried overnight. In the morning the filters were counted on a Wallac Trilux™ counter.
(§4) Saturation and competition radioligand binding assays were used to characterize membranes prepared from human recombinant CB1 and CB2 and rat brain membranes.

human CB2 receptor = target: T3, human CB2 receptor (Homo sapiens, UniProt P34972); assay: Competition radioligand binding, human CB2
T3 construct: expressed in transfected cells
T3 sequence (P34972 whole entry): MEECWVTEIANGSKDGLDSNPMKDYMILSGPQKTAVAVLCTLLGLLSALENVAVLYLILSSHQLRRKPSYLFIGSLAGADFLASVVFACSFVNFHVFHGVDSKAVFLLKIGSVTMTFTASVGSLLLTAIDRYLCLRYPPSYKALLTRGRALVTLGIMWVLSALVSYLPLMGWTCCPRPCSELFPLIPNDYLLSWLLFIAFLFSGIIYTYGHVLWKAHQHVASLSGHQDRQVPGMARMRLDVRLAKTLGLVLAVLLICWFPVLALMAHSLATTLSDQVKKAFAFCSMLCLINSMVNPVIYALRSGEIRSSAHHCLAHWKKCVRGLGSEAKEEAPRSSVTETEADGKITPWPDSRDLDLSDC
Experimental: as §2, §3, §4

[2] = Unbound plasma concentration of CE-178253; assay type: in vivo, rat; details: for Unbound Plasma Concentration (± S-D): indirect calorimetry study; for concentration at […]: Sprague-Dawley, rat, plasma, oral, fast-induced refeeding study, read-out: Unbound Plasma Concentration (± S-D)
Experimental: Plasma bound fractions for CE-178253 were determined using an equilibrium dialysis assay, as previously described. Spectra-Por 2 membranes (Spectrum Laboratories Inc., Rancho Dominguez, CA) with a molecular cut-off of 12-14 kDa were used for the dialysis. Equilibrium of the system was achieved by incubating the apparatus for 4.5 hr in a 37°C reciprocating water bath (set at 155 rpm). A standard curve was set up over the range 1-1000 ng/mL. All samples were quantified using liquid chromatography/tandem mass spectrometry using a PE Sciex API 3000 spectrometer. For plasma, the unbound fraction was determined as the ratio of concentrations determined in buffer and plasma.

[3] = target: T4, rat brain membranes (predominantly CB1) (Rattus norvegicus, UniProt P20272); assay: Competition radioligand binding, rat brain membranes
T4 construct: In rat membranes prepared from whole brain; from tissue; host or cells: rat whole brain membranes
T4 sequence (P20272 whole entry): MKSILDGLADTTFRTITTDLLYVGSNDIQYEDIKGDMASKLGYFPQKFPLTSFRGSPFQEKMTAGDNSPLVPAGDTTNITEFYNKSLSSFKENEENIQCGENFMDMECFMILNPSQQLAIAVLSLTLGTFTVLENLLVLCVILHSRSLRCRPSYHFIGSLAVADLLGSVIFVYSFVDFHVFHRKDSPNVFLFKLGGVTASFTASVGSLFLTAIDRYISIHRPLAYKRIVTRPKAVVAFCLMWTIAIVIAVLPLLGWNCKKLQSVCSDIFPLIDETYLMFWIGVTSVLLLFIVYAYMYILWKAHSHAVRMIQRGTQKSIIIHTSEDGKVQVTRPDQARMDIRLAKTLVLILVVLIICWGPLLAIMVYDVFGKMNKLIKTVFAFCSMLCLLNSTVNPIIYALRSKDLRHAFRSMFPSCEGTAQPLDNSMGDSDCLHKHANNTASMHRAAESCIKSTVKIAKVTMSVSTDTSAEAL
Experimental: as §2, §3, §4

[4] = Ten day DIO mouse food intake and body weight study; assay type: in vivo; details: 10-day, DIO mice
Experimental: Male, 14 week old C57/Bl6/6J mice which had been maintained on a high fat diet (45% kcal from fat) for 6 weeks were selected for the DIO weight loss study. The animals body weights ranged at least 5 standard deviations from age-matched chow-fed control animals mean body weight. Mice were singly housed. The mean starting weight of all animals was 38.9 ± 0.5 g. On Day 0, mice were randomly assigned to treatment groups (n = 10 per group). Mice were dosed daily over 10 days, starting approximately at 30 minutes before the start of the 12 hr dark cycle. BW and food intake were recorded daily.
DIO mice were treated once daily with veh. (0.5% MC) or CE-178253 at 1 mg/kg or 3 mg/kg, p.o., in a 10-day study (Figures 8A and 8B). […] The lower dose of CE-178253 (1 mg/kg, p.o.) provided for a non-significant 8% reduction in FI, whereas the 3 mg/kg dose led to a significant 31% reduction in cumulative FI. As with other CB1 receptor antagonists, the food intake reduction was maximal over the first five days and declined over time (Figure 8A). However, FI reductions were still evident on the final day of dosing at the high dose. […] The high dose group (3 mg/kg) lost, on average 18% BW.

[5] = system: other receptors, ion channels, and uptake sites (Table 2); assay: Binding panel at 1 μM; details: any site of Table 2
Description: as §1

## CCNC1(C(N)=O)CN(c2nc(C)nc3c(-c4ccc(Cl)cc4)c(-c4ccccc4Cl)nn23)C1 [CE-178253]
[1]; 0.3 mg/kg p.o.
  Decrease in FI compared to veh.: 25%
[1]; 1 mg/kg p.o.
  Decrease in FI compared to veh.: 84%
[1]; 3 mg/kg p.o.
  Decrease in FI compared to veh.: 94%
[1]; Rattus norvegicus, unbound plasma concentration (Cave, fu, p, 0-2.5 hr), cumulative FI at 2.5 hr post dose, read-out: Unbound EC50, reduction of food intake
  EC50: 0.5 nM
GPR55
  Agonist activity at GPR55: No agonist activity was detected; also recorded: GPR55 (no activity at 10 μM)
Human CB1 in CHO cells
  Inverse agonist potency weaker than binding potency: 6 fold
  Inverse agonist potency weaker than functional potency: 29 fold
Human CB1 in CHO cells; decrease in basal GTPγ[35S] binding
  IC50: 2 ± 0.56 nM
Human CB1 in CHO cells; percent decrease in basal GTPγ[35S] binding, read-out: Intrinsic Activity
  Emax: 21%
Human CB1 receptor; not shown
  Concentration giving complete inhibition of [3H]SR141716A binding: greater than 10 nM
Human CB1 receptor; read-out: Ki, competition binding, hCB1
  Ki: 0.33 ± 0.07 nM
Human CB2 receptor; [3H]CP-55940, ± SEM (n), read-out: Ki, competition binding, hCB2
  Ki: 15700 ± 6170 nM
Human CB2 receptor; difference in binding Ki values
  Selectivity (hCB2 vs hCB1 binding Ki): > 30,000 fold
[2]; 1 mg/kg p.o.
  Unbound Plasma Concentration (± S-D): 0.8 ± 0.2 nM
  concentration at […]: 1 ± 0.3 nM
[2]; 3 mg/kg p.o.
  Unbound Plasma Concentration (± S-D): 3.8 ± 0.9 nM
  concentration at […]: 2.7 ± 1 nM
[2]; 0.3 mg/kg p.o.
  concentration at […]: 0.17 ± 0.02 nM
[2]; 10 mg/kg p.o.
  concentration at […]: 15.6 ± 1.6 nM
[3]
  Ki: 0.43 ± 0.13 nM
[4]; 1 mg/kg p.o. once daily, non-significant
  Reduction in cumulative FI: 8%
[4]; 3 mg/kg p.o. once daily
  BW lost, on average: 18%
[4]; 3 mg/kg p.o. once daily, significant
  Reduction in cumulative FI: 31%
[5]
  Inhibition of binding at panel sites: ≤ 50%
